Where a name gives a salt, the structure may show the parent alone. One block for each compound: values may come before it.
Legend:
Assay in all cases: MIC, NCCLS broth microdilution
Format in all cases: cell-based
Enterobacter cloacae P99 = details: for MIC of antibiotic at fixed inhibitor concentration (4 mg/L): MIC of antibiotic compound 1 with the labelled bridged monobactam of formula II and clavulanate, 4 mg/L each
Serratia marcescens S6 = details: for MIC of antibiotic at fixed inhibitor concentration (4 mg/L): MIC of antibiotic compound 1 with the labelled bridged monobactam of formula II and clavulanate, 4 mg/L each
[1] = tested on: Klebsiella pneumoniae CF104; details: for MIC of antibiotic at fixed inhibitor concentration (4 mg/L): MIC of antibiotic compound 1 with the labelled bridged monobactam of formula II and clavulanate, 4 mg/L each
Acinetobacter sp. J2 = details: for MIC of antibiotic at fixed inhibitor concentration (4 mg/L): Acinetobacter sp. J2, MIC of antibiotic compound 1 with the labelled bridged monobactam of formula II and clavulanate, 4 mg/L each
[2] = tested on: Pseudomonas aeruginosa MK1184; details: for MIC of antibiotic at fixed inhibitor concentration (4 mg/L): MIC of antibiotic compound 1 with the labelled bridged monobactam of formula II and clavulanate, 4 mg/L each
[3] = tested on: Stenotrophomonas malthophilia 1AC736; details: for MIC of antibiotic at fixed inhibitor concentration (4 mg/L): Stenotrophomonas malthophilia 1AC736, MIC of antibiotic compound 1 with the labelled bridged monobactam of formula II and clavulanate, 4 mg/L each
[4] = tested on: Pseudomonas aeruginosa 1973E; details: for MIC of antibiotic at fixed inhibitor concentration (4 mg/L): MIC of antibiotic compound 1 with the labelled bridged monobactam of formula II and clavulanate, 4 mg/L each
Method in brief: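 Compounds were serially diluted per NCCLS M7-A5 (final DMSO no more than 1%) and incubated with bacteria overnight at 30° C. or 37° C. Visible growth was then judged by eye. For combinations, partner compounds sat in every well at a constant 4 μg/mL each.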

SMILES: O=C(NCc1cccs1)N1CC[C@@H]2[C@H]1C(=O)N2S(=O)(=O)[O-].[Na+] [Compound 314]
MIC of antibiotic at fixed inhibitor concentration (4 mg/L) (Enterobacter cloacae P99): 32 µg/mL
MIC of antibiotic at fixed inhibitor concentration (4 mg/L) (Serratia marcescens S6): 0.25 µg/mL
MIC of antibiotic at fixed inhibitor concentration (4 mg/L) [1]: 1 µg/mL
MIC of antibiotic at fixed inhibitor concentration (4 mg/L) (Acinetobacter sp. J2): 4 µg/mL
MIC of antibiotic at fixed inhibitor concentration (4 mg/L) [2]: >32 µg/mL
MIC of antibiotic at fixed inhibitor concentration (4 mg/L) [3]: 0.125 µg/mL
MIC of antibiotic at fixed inhibitor concentration (4 mg/L) [4]: 4 µg/mL

SMILES: CCOC(=O)c1cccc(NC(=O)N2CC[C@@H]3[C@H]2C(=O)N3S(=O)(=O)[O-])c1.[Na+] [Compound 320, Sodium(1S,5R)-2-{N-[3-(ethoxycarbonyl)phenyl]carbamoyl}-7-oxo-2,6-diazabicyclo[3.2.0]heptane-6-sulfonate]
MIC of antibiotic at fixed inhibitor concentration (4 mg/L) (Enterobacter cloacae P99): 8 µg/mL
MIC of antibiotic at fixed inhibitor concentration (4 mg/L) (Serratia marcescens S6): 0.25 µg/mL
MIC of antibiotic at fixed inhibitor concentration (4 mg/L) [1]: 0.5 µg/mL
MIC of antibiotic at fixed inhibitor concentration (4 mg/L) (Acinetobacter sp. J2): >32 µg/mL
MIC of antibiotic at fixed inhibitor concentration (4 mg/L) [2]: >32 µg/mL
MIC of antibiotic at fixed inhibitor concentration (4 mg/L) [3]: 0.125 µg/mL
MIC of antibiotic at fixed inhibitor concentration (4 mg/L) [4]: 8 µg/mL

SMILES: Cc1cc[n+](CC(=O)N2CC[C@@H]3[C@H]2C(=O)N3S(=O)(=O)[O-])cc1C [Compound 121, (1S,5R)-2-[2-(3,4-dimethylpyridinium)acetyl]-7-oxo-2,6-diazabicyclo[3.2.0]heptane-6-sulfonate, inner salt]
MIC of antibiotic at fixed inhibitor concentration (4 mg/L) (Enterobacter cloacae P99): 32 µg/mL
MIC of antibiotic at fixed inhibitor concentration (4 mg/L) (Serratia marcescens S6): 0.25 µg/mL
MIC of antibiotic at fixed inhibitor concentration (4 mg/L) [1]: 0.25 µg/mL
MIC of antibiotic at fixed inhibitor concentration (4 mg/L) (Acinetobacter sp. J2): >32 µg/mL
MIC of antibiotic at fixed inhibitor concentration (4 mg/L) [2]: 16 µg/mL
MIC of antibiotic at fixed inhibitor concentration (4 mg/L) [3]: 0.25 µg/mL
MIC of antibiotic at fixed inhibitor concentration (4 mg/L) [4]: 4 µg/mL

Next, values leading:

MIC of antibiotic (Enterobacter cloacae P99; antibiotic alone, no inhibitor): >32 µg/mL
MIC of antibiotic at fixed inhibitor concentration of 4 mg/L (Enterobacter cloacae P99; with 102 and clavulanate): 8 µg/mL
MIC of antibiotic at fixed inhibitor concentration of 4 mg/L (Enterobacter cloacae P99; with 324 and clavulanate): 4 µg/mL
MIC of antibiotic at fixed inhibitor concentration of 4 mg/L (Enterobacter cloacae P99; with 324 and sulbactam): 4 µg/mL
MIC of antibiotic (Serratia marcescens S6; antibiotic alone, no inhibitor): 0.13 µg/mL
MIC of antibiotic at fixed inhibitor concentration of 4 mg/L (Serratia marcescens S6; with 102 and clavulanate): 0.25 µg/mL
MIC of antibiotic at fixed inhibitor concentration of 4 mg/L (Serratia marcescens S6; with 324 and clavulanate): 0.13 µg/mL
MIC of antibiotic at fixed inhibitor concentration of 4 mg/L (Serratia marcescens S6; with 324 and sulbactam): 0.13 µg/mL
MIC of antibiotic ([1]; antibiotic alone, no inhibitor): >32 µg/mL
MIC of antibiotic at fixed inhibitor concentration of 4 mg/L ([1]; with 102 and clavulanate): 0.25 µg/mL
MIC of antibiotic at fixed inhibitor concentration of 4 mg/L ([1]; with 324 and clavulanate): 0.25 µg/mL
MIC of antibiotic at fixed inhibitor concentration of 4 mg/L ([1]; with 324 and sulbactam): 4 µg/mL
MIC of antibiotic (Acinetobacter sp. J2; Acinetobacter baumannii J2, antibiotic alone, no inhibitor): >32 µg/mL
MIC of antibiotic at fixed inhibitor concentration of 4 mg/L (Acinetobacter sp. J2; Acinetobacter baumannii J2, with 102 and clavulanate): 4 µg/mL
MIC of antibiotic at fixed inhibitor concentration of 4 mg/L (Acinetobacter sp. J2; Acinetobacter baumannii J2, with 324 and clavulanate): 8 µg/mL
MIC of antibiotic at fixed inhibitor concentration of 4 mg/L (Acinetobacter sp. J2; Acinetobacter baumannii J2, with 324 and sulbactam): 2 µg/mL
MIC of antibiotic ([2]; antibiotic alone, no inhibitor): 8 µg/mL
MIC of antibiotic at fixed inhibitor concentration of 4 mg/L ([2]; with 102 and clavulanate): 4 µg/mL
MIC of antibiotic at fixed inhibitor concentration of 4 mg/L ([2]; with 324 and clavulanate): 4 µg/mL
MIC of antibiotic at fixed inhibitor concentration of 4 mg/L ([2]; with 324 and sulbactam): 4 µg/mL
MIC of antibiotic ([3]; Stenotrophomonas maltophilia 1AC736, antibiotic alone, no inhibitor): 0.5 µg/mL
MIC of antibiotic at fixed inhibitor concentration of 4 mg/L ([3]; Stenotrophomonas maltophilia 1AC736, with 102 and clavulanate): 1 µg/mL
MIC of antibiotic at fixed inhibitor concentration of 4 mg/L ([3]; Stenotrophomonas maltophilia 1AC736, with 324 and clavulanate): 1 µg/mL
MIC of antibiotic at fixed inhibitor concentration of 4 mg/L ([3]; Stenotrophomonas maltophilia 1AC736, with 324 and sulbactam): 1 µg/mL
MIC of antibiotic ([4]; antibiotic alone, no inhibitor): 4 µg/mL
MIC of antibiotic at fixed inhibitor concentration of 4 mg/L ([4]; with 102 and clavulanate): 4 µg/mL
MIC of antibiotic at fixed inhibitor concentration of 4 mg/L ([4]; with 324 and clavulanate): 4 µg/mL
MIC of antibiotic at fixed inhibitor concentration of 4 mg/L ([4]; with 324 and sulbactam): 4 µg/mL
SMILES: C[C@H]1[C@H](NC(=O)/C(=N\OCc2cc(=O)c(O)cn2O)c2csc(N)n2)C(=O)N1OCC(=O)O [Compound 22, 2-((3S,4S)-3-{(2Z)-2-(2-amino(1,3-thiazol-4-yl))-3-[(1,5-dihydroxy-4-oxo(2-hydropyridyl))methoxy]-3-azaprop-2-enoylamino}-4-methyl-2-oxoazetidinyloxy)acetic acid]

MIC of antibiotic at fixed inhibitor concentration (4 mg/L) (Enterobacter cloacae P99): 32 µg/mL
MIC of antibiotic at fixed inhibitor concentration (4 mg/L) (Serratia marcescens S6): 0.5 µg/mL
MIC of antibiotic at fixed inhibitor concentration (4 mg/L) [1]: 2 µg/mL
MIC of antibiotic at fixed inhibitor concentration (4 mg/L) (Acinetobacter sp. J2): >32 µg/mL
MIC of antibiotic at fixed inhibitor concentration (4 mg/L) [2]: >32 µg/mL
MIC of antibiotic at fixed inhibitor concentration (4 mg/L) [3]: 0.125 µg/mL
MIC of antibiotic at fixed inhibitor concentration (4 mg/L) [4]: 4 µg/mL
SMILES: O=C(NCc1ccc(O)c(O)c1)N1CC[C@@H]2[C@H]1C(=O)N2S(=O)(=O)[O-].[Na+] [Compound 303, Sodium(1S,5R)-2-{N-[(3,4-dihydroxyphenyl)methyl]carbamoyl}-7-oxo-2,6-diazabicyclo[3.2.0]heptane-6-sulfonate]

Source: patent US20160122320A1, “USEFUL COMBINATIONS OF MONOBACTAM ANTIBIOTICS WITH BETA-LACTAMASE INHIBITORS” (Basilea Pharmaceutica AG, priority 2005, published 2016)
